Test results taken from ChEMBL document CHEMBL1201862, “PubChem BioAssay data set” (2004).
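Each compound was tested at five concentrations against cells in 96-well plates for 48 hours. At the GI50, growth is halved.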 Calls of active or inactive are those of the source. No stated cut-off is given here; in the data, active = GI50 up to about 1.1 µM and inactive = higher.

How the values were obtained:
Assay in all cases: NCI-60 cell line screen, 48 h
MCF7 = system: MCF7
SF-268 = system: SF-268
HCT-15 = system: HCT-15
MDA-MB-435 = system: MDA-MB-435
HT-29 = system: HT-29
SR = system: SR
RPMI-8226 = system: RPMI-8226
A549 = system: A549
HCT-116 = system: HCT-116
OVCAR-5 = system: OVCAR-5
NCI-H23 = system: NCI-H23
SK-MEL-5 = system: SK-MEL-5
SNB-19 = system: SNB-19
UACC-257 = system: UACC-257
LOX IMVI = system: LOX IMVI
HOP-92 = system: HOP-92
MDA-N = system: MDA-N
PC-3 = system: PC-3
SF-539 = system: SF-539
Hs-578T = system: Hs-578T
HL-60 = system: HL-60
SK-MEL-2 = system: SK-MEL-2
IGROV-1 = system: IGROV-1
U-251 = system: U-251
MOLT-4 = system: MOLT-4
MDA-MB-231 = system: MDA-MB-231
OVCAR-4 = system: OVCAR-4
Malme-3M = system: Malme-3M
COLO 205 = system: COLO 205
SW-620 = system: SW-620
SN12C = system: SN12C
UO-31 = system: UO-31
K562 = system: K562
NCI-H522 = system: NCI-H522
CAKI-1 = system: CAKI-1
UACC-62 = system: UACC-62
DU-145 = system: DU-145
NCI/ADR-RES = system: NCI/ADR-RES
786-0 = system: 786-0
RXF 393 = system: RXF 393
NCI-H226 = system: NCI-H226
CCRF-CEM = system: CCRF-CEM
A498 = system: A498
ACHN = system: ACHN
KM12 = system: KM12
OVCAR-8 = system: OVCAR-8
M14 = system: M14
BT-549 = system: BT-549
OVCAR-3 = system: OVCAR-3
SNB-75 = system: SNB-75
TK-10 = system: TK-10
SK-OV-3 = system: SK-OV-3
SF-295 = system: SF-295
HCC 2998 = system: HCC 2998
EKVX = system: EKVX
SK-MEL-28 = system: SK-MEL-28
HOP-62 = system: HOP-62

Cc1ccc2c3c1O[C@H]1c4[nH]c5ccccc5c4C[C@@]4(O)[C@@H](C2)N(C)CC[C@]314
GI50 (MCF7): 16 µM (inactive)
GI50 (SF-268): 17.1 µM (inactive)
GI50 (HCT-15): 17.2 µM
GI50 (MDA-MB-435): 14.5 µM (inactive)
GI50 (HT-29): 11.5 µM (inactive)
GI50 (SR): 13.7 µM (inactive)
GI50 (RPMI-8226): 14.1 µM (inactive)
GI50 (A549): 17 µM (inactive)
GI50 (HCT-116): 16.6 µM (inactive)
GI50 (OVCAR-5): 20.7 µM (inactive)
GI50 (NCI-H23): 18.4 µM (inactive)
GI50 (SK-MEL-5): 14.5 µM (inactive)
GI50 (SNB-19): 17.9 µM (inactive)
GI50 (UACC-257): 13.7 µM (inactive)
GI50 (LOX IMVI): 15.4 µM (inactive)
GI50 (HOP-92): 9.08 µM (inactive)
GI50 (MDA-N): 17.8 µM (inactive)
GI50 (PC-3): 17.3 µM (inactive)
GI50 (SF-539): 15.7 µM (inactive)
GI50 (Hs-578T): 0.474 µM (active)
GI50 (HL-60): 14.6 µM (inactive)
GI50 (SK-MEL-2): 20.7 µM (inactive)
GI50 (IGROV-1): 18 µM (inactive)
GI50 (U-251): 16 µM (inactive)
GI50 (MOLT-4): 16.4 µM (inactive)
GI50 (MDA-MB-231): 15.2 µM (inactive)
GI50 (OVCAR-4): 16.9 µM (inactive)
GI50 (Malme-3M): 13.9 µM (inactive)
GI50 (COLO 205): 14.4 µM (inactive)
GI50 (SW-620): 15 µM (inactive)
GI50 (SN12C): 18.2 µM (inactive)
GI50 (UO-31): 13.7 µM (inactive)
GI50 (K562): 16.9 µM (inactive)
GI50 (NCI-H522): 19.1 µM (inactive)
GI50 (CAKI-1): 17.3 µM (inactive)
GI50 (UACC-62): 16.6 µM (inactive)
GI50 (DU-145): 19.8 µM (inactive)
GI50 (NCI/ADR-RES): 17.8 µM (inactive)
GI50 (786-0): 15.6 µM (inactive)
GI50 (RXF 393): 10.1 µM (inactive)
GI50 (NCI-H226): 9.04 µM (inactive)
GI50 (CCRF-CEM): 18.3 µM (inactive)
GI50 (A498): 17 µM (inactive)
GI50 (ACHN): 15.9 µM (inactive)
GI50 (KM12): 16.9 µM (inactive)
GI50 (OVCAR-8): 18.6 µM (inactive)
GI50 (M14): 16.2 µM (inactive)
GI50 (BT-549): 16.4 µM (inactive)

CCOC(=O)N/N=C(/N)Cc1ccc(Cl)cc1
GI50 (MCF7): > 100 µM (inactive)
GI50 (SF-268): > 100 µM (inactive)
GI50 (HCT-15): > 100 µM
GI50 (MDA-MB-435): > 100 µM (inactive)
GI50 (HT-29): > 100 µM (inactive)
GI50 (RPMI-8226): > 100 µM (inactive)
GI50 (A549): > 100 µM (inactive)
GI50 (HCT-116): > 100 µM (inactive)
GI50 (OVCAR-5): > 100 µM (inactive)
GI50 (OVCAR-3): > 100 µM (inactive)
GI50 (NCI-H23): > 100 µM (inactive)
GI50 (SK-MEL-5): > 100 µM (inactive)
GI50 (SNB-19): > 100 µM (inactive)
GI50 (UACC-257): > 100 µM (inactive)
GI50 (LOX IMVI): > 100 µM (inactive)
GI50 (HOP-92): > 100 µM (inactive)
GI50 (MDA-N): > 100 µM (inactive)
GI50 (PC-3): > 100 µM (inactive)
GI50 (SF-539): > 100 µM (inactive)
GI50 (SK-MEL-2): > 100 µM (inactive)
GI50 (IGROV-1): > 100 µM (inactive)
GI50 (U-251): > 100 µM (inactive)
GI50 (MOLT-4): > 100 µM (inactive)
GI50 (MDA-MB-231): > 100 µM (inactive)
GI50 (OVCAR-4): > 100 µM (inactive)
GI50 (SNB-75): > 100 µM (inactive)
GI50 (TK-10): > 100 µM (inactive)
GI50 (COLO 205): > 100 µM (inactive)
GI50 (SW-620): > 100 µM (inactive)
GI50 (SN12C): > 100 µM (inactive)
GI50 (UO-31): > 100 µM (inactive)
GI50 (K562): > 100 µM (inactive)
GI50 (NCI-H522): > 100 µM (inactive)
GI50 (SK-OV-3): > 100 µM (inactive)
GI50 (UACC-62): > 100 µM (inactive)
GI50 (DU-145): > 100 µM (inactive)
GI50 (NCI/ADR-RES): > 100 µM (inactive)
GI50 (SF-295): > 100 µM (inactive)
GI50 (786-0): > 100 µM (inactive)
GI50 (RXF 393): > 100 µM (inactive)
GI50 (HCC 2998): > 100 µM (inactive)
GI50 (CCRF-CEM): > 100 µM (inactive)
GI50 (EKVX): > 100 µM (inactive)
GI50 (SK-MEL-28): > 100 µM (inactive)
GI50 (ACHN): > 100 µM (inactive)
GI50 (KM12): > 100 µM (inactive)
GI50 (OVCAR-8): > 100 µM (inactive)
GI50 (M14): > 100 µM (inactive)
GI50 (BT-549): > 100 µM (inactive)
GI50 (HOP-62): > 100 µM (inactive)

CN(C)CC1CCCCCCCCCCC1=O (centres undefined)
GI50 (UACC-257): > 10 µM (inactive)
GI50 (MDA-MB-231): > 10 µM (inactive)
GI50 (SF-295): > 10 µM (inactive)
GI50 (RXF 393): > 10 µM (inactive)
GI50 (HCC 2998): > 10 µM (inactive)
GI50 (OVCAR-8): > 10 µM (inactive)
